Measurements as given in article PMC1208959 (Virology Journal, 2005).

CC[C@H](C)[C@H](NC(=O)[C@H](Cc1ccc(O)cc1)NC(=O)[C@H](CC(=O)O)NC(=O)[C@H](CCCCN)NC(=O)[C@H](CO)NC(=O)[C@H](CCC(N)=O)NC(=O)[C@H](CCC(N)=O)NC(=O)[C@H](CC(C)C)NC(=O)[C@H](CO)NC(=O)[C@H](CCC(N)=O)NC(=O)[C@H](CC(N)=O)NC(=O)[C@H](CCSC)NC(=O)[C@H](CO)NC(=O)[C@H](CO)NC(=O)[C@@H](NC(=O)[C@H](CCC(N)=O)NC(=O)[C@H](CO)NC(=O)[C@H](CO)NC(=O)[C@@H](NC(=O)[C@H](CC(=O)O)NC(=O)[C@@H](NC(=O)[C@H](CCCCN)NC(=O)CCOCCOCCOCCOCCOCCOCCOCCOCCOCCOCCOCCOCCNC(C)=O)C(C)C)[C@@H](C)CC)[C@@H](C)CC)C(=O)N[C@@H](CCCCN)C(=O)N[C@@H](CCC(=O)O)C(=O)N[C@@H](C)C(=O)N[C@@H](CCC(N)=O)C(=O)N[C@@H](CCCNC(=N)N)C(=O)N[C@@H](CC(C)C)C(=O)N[C@@H](CC(C)C)C(=O)N[C@@H](CC(=O)O)C(=O)N[C@H](C(=O)N[C@H](C(=O)N[C@@H](CC(N)=O)C(=O)N1CCC[C@H]1C(=O)N[C@@H](CO)C(=O)N[C@@H](CC(C)C)C(N)=O)C(C)C)[C@@H](C)O [N-PEG NiV FC2]
number of syncytia per cell monolayer (in words) (live HeV): largely unchanged | syncytial morphology and size (in words) (live HeV): dramatic and robust reduction in syncytial size | number of syncytia per cell monolayer (in words) (live NiV): largely unchanged | syncytial morphology and size (in words) (live NiV): dramatic and robust reduction in syncytial size
